{"source": "paper PMC9120901", "about": "(The Journal of General Physiology, 2022)", "format_in_all_cases": "cell-based", "key": {"ASIC3 [1]": {"target": "T1, ASIC3 (Rattus norvegicus, UniProt O35240)", "T1 sequence (O35240 1-533)": "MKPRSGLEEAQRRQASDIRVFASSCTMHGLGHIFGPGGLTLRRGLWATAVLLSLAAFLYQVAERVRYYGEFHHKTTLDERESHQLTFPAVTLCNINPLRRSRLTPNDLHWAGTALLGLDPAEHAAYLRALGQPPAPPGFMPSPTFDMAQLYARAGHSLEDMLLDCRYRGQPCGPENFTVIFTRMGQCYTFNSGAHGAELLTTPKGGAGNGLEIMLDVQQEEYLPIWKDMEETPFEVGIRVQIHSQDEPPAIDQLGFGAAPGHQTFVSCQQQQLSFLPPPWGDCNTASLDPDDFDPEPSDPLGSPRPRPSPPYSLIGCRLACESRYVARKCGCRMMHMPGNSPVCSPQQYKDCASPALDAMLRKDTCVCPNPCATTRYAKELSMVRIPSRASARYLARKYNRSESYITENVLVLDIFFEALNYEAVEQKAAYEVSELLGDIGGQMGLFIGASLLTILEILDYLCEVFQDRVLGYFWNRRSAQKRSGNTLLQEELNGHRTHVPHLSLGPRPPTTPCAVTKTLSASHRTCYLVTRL", "assay": "whole-cell patch clamp, shift of activation pH0.[…]"}, "ASIC3 [2]": {"target": "T1, ASIC3", "assay": "whole-cell patch clamp, concentration dependence of shift of activation pH0.[…]"}, "ASIC3 [3]": {"target": "T1, ASIC3", "assay": "whole-cell patch clamp"}}}
{"smiles": "CCCCC/C=C\\C/C=C\\C/C=C\\C/C=C\\CCCC(=O)NCC(=O)O", "note": "[AG, arachidonyl glycine]", "values": [{"measurement": "EC50", "setting": "ASIC3 [1]", "result": "5.4 ± 1.12", "unit": "µM"}]}
{"smiles": "CCCCC/C=C\\C/C=C\\C/C=C\\C/C=C\\CCCC(=O)O", "note": "[AA, arachidonic acid]", "values": [{"measurement": "EC50", "setting": "ASIC3 [2]", "result": "11 ± 2", "unit": "µM"}]}
{"smiles": "CC/C=C\\C/C=C\\C/C=C\\C/C=C\\C/C=C\\CCCCCC(=O)O", "note": "[DPA, docosapentaenoic acid]", "values": [{"measurement": "whole-cell patch clamp; pH0.5 shift at 10 μM and concentration dependence at pH", "setting": "ASIC3 [3]", "result": "0.27 ΔpH0.5 at 10 µM"}]}
